Measurements from US10301291B2, “Imidazole derivative having JNK inhibitory activity and use thereof” (SAMJIN PHARMACEUTICAL CO., LTD., priority 2016, dated 2019).

Legend:
Type in all cases: biochemical
various protein kinases = experiment: Inhibitory activity against various protein kinases (selectivity, whole panel); conditions: kinase panel, compound 10 μM
Experimental: (§1) An inhibitory activity of the compound (10 μM) of Example 34 against various protein kinases was measured by means of a kinase profiling service (ICso profiler express) of Reaction Biology Corp., wherein ICso, a concentration at which JNK enzyme activity was inhibited 50%, was also measured by sequentially reducing a concentration of the compound.
IC50 values of the compound of Example 34 with regard to various protein kinases were shown in a following Table 3.

FMS = FMS (Homo sapiens (Human), UniProt P07333); experiment: Kinase profiling service (Reaction Biology Corp.); conditions: compound 10 μM
Experimental: as §1

JAK3 = JAK3 (Homo sapiens (Human), UniProt P52333); experiment: Kinase profiling service (Reaction Biology Corp.); conditions: compound 10 μM
Experimental: as §1

EGFR = EGFR (Homo sapiens (Human), UniProt P00533); experiment: Kinase profiling service (Reaction Biology Corp.); conditions: compound 10 μM
Experimental: as §1

PKA = PKA (Homo sapiens (Human), UniProt P17612); experiment: Kinase profiling service (Reaction Biology Corp.); conditions: compound 10 μM
Experimental: as §1

FLT3 = FLT3 (Homo sapiens (Human), UniProt P36888); experiment: Kinase profiling service (Reaction Biology Corp.); conditions: compound 10 μM
Experimental: as §1

c-MET = c-MET (Homo sapiens (Human), UniProt P08581); experiment: Kinase profiling service (Reaction Biology Corp.); conditions: compound 10 μM
Experimental: as §1

LRRK2 = LRRK2 (Homo sapiens (Human), UniProt Q5S007); experiment: Kinase profiling service (Reaction Biology Corp.); conditions: compound 10 μM
Experimental: as §1

Aurora A = Aurora A (Homo sapiens (Human), UniProt O14965); experiment: Kinase profiling service (Reaction Biology Corp.); conditions: compound 10 μM
Experimental: as §1

MEK1 = MEK1 (Homo sapiens (Human), UniProt Q02750); experiment: Kinase profiling service (Reaction Biology Corp.); conditions: compound 10 μM
Experimental: as §1

SYK = SYK (Homo sapiens (Human), UniProt P43405); experiment: Kinase profiling service (Reaction Biology Corp.); conditions: compound 10 μM
Experimental: as §1

PLK1 = PLK1 (Homo sapiens (Human), UniProt P53350); experiment: Kinase profiling service (Reaction Biology Corp.); conditions: compound 10 μM
Experimental: as §1

ERK2/MAPK1 = ERK2/MAPK1 (Homo sapiens (Human), UniProt P28482); experiment: Kinase profiling service (Reaction Biology Corp.); conditions: compound 10 μM
Experimental: as §1

FAK/PTK2 = FAK/PTK2 (Homo sapiens (Human), UniProt Q05397); experiment: Kinase profiling service (Reaction Biology Corp.); conditions: compound 10 μM
Experimental: as §1

c-Kit = c-Kit (Homo sapiens (Human), UniProt P10721); experiment: Kinase profiling service (Reaction Biology Corp.); conditions: compound 10 μM
Experimental: as §1

JNK2 = JNK2 (Homo sapiens (Human), UniProt P45984); experiment: Kinase profiling service (Reaction Biology Corp.); conditions: compound 10 μM
Experimental: as §1

AKT1 = AKT1 (Homo sapiens (Human), UniProt P31749); experiment: Kinase profiling service (Reaction Biology Corp.); conditions: compound 10 μM
Experimental: as §1

GSK3b = GSK3b (Homo sapiens (Human), UniProt P49841); experiment: Kinase profiling service (Reaction Biology Corp.); conditions: compound 10 μM
Experimental: as §1

CDK1/cyclin B = CDK1/cyclin B (Homo sapiens (Human), UniProt P06493); experiment: Kinase profiling service (Reaction Biology Corp.); conditions: compound 10 μM
Experimental: as §1

LYN = LYN (Homo sapiens (Human), UniProt P07948); experiment: Kinase profiling service (Reaction Biology Corp.); conditions: compound 10 μM
Experimental: as §1

FYN = FYN (Homo sapiens (Human), UniProt P06241); experiment: Kinase profiling service (Reaction Biology Corp.); conditions: compound 10 μM
Experimental: as §1

IGF1R = IGF1R (Homo sapiens (Human), UniProt P08069); experiment: Kinase profiling service (Reaction Biology Corp.); conditions: compound 10 μM
Experimental: as §1

LCK = LCK (Homo sapiens (Human), UniProt P06239); experiment: Kinase profiling service (Reaction Biology Corp.); conditions: compound 10 μM
Experimental: as §1

MLK1/MAP3K9 = MLK1/MAP3K9 (Homo sapiens (Human), UniProt P80192); experiment: Kinase profiling service (Reaction Biology Corp.); conditions: compound 10 μM
Experimental: as §1

ROS/ROS1 = ROS/ROS1 (Homo sapiens (Human), UniProt P08922); experiment: Kinase profiling service (Reaction Biology Corp.); conditions: compound 10 μM
Experimental: as §1

JNK3 = JNK3 (Homo sapiens (Human), UniProt P53779); experiment: Measurement of JNK3 enzyme activity (33P-ATP filter-binding); conditions: human JNK3, ATP 10 μM, ATF2 3 μM
Experimental: The changes in JNK3 enzyme activity resulting from being treated with the inventive imidazole derivative (Formula 1) shown in a following Table 1 were identified through IC50.
First of all, after a substrate was inserted into a prepared base reaction buffer solution (20 mM Hepes ([…]), 10 mM MgCl2, 1 mM EGTA, 0.02% Brij35, 0.02 mg/ml BSA, 0.1 mM Na3VO4, 2 mM DTT, 1% DMSO), a human JNK3 enzyme was added into a prepared substrate solution and then mixed together. As the substrate, ATP (10 μM) and ATF2 (3 μM) were used, among which the ATP was also used as a common substrate. Then, compounds of Examples 1-18 and 25-36, which were dissolved in 100% DMSO, were inserted into an enzyme reaction solution, and then cultured at room temperature for 20 minutes. Then, ^33P-ATP was inserted into the above reaction mixture solution to initiate a reaction, then cultured at room temperature for 2 hours, and then an enzyme activity was detected by means of a filter-binding method.
Particularly, after each 25 μl of the resulting solution was slowly spotted on P81 paper, it was inserted into a scintillation vial, and washed with 0.75% phosphoric acid four times for 10 minutes each, and with acetone once for 5 minutes. 5 ml of scintillation cocktail was inserted into the above scintillation vial and a resulting signal was read by means of a scintillation counter.
IC50 values of compounds of Examples 1-18 and 25-36 with regard to JNK3 enzyme activity were shown in a following Table 2.

[1] = Data 1 and Data 2, read-out: % Enzyme Activity (relative to DMSO controls)

FMS, sequence (P07333 20-972): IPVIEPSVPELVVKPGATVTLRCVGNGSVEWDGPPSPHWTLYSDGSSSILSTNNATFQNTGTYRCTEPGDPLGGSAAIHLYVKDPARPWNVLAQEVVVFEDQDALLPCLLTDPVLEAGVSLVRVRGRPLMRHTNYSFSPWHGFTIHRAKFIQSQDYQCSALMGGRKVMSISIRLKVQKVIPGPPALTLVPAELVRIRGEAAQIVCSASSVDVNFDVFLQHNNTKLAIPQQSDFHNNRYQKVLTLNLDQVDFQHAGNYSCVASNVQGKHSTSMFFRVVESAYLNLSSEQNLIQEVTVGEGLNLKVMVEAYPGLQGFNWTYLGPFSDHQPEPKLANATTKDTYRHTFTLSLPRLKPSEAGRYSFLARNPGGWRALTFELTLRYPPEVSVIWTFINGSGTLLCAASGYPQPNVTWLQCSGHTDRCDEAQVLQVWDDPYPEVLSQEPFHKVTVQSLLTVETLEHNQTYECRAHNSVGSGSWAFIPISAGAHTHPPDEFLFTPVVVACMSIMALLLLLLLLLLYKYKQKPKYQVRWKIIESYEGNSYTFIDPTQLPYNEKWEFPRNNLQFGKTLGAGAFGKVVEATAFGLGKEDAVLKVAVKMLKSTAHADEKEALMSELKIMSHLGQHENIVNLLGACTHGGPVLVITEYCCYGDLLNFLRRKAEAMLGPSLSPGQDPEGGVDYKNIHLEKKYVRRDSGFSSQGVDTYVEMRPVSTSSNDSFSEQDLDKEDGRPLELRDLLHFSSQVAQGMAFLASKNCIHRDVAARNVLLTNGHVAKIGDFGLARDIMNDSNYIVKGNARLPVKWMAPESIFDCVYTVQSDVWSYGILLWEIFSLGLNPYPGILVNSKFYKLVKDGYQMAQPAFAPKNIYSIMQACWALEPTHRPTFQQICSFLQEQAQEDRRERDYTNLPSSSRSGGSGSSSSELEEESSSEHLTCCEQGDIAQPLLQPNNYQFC
CDK1/cyclin B, sequence (P06493 whole entry): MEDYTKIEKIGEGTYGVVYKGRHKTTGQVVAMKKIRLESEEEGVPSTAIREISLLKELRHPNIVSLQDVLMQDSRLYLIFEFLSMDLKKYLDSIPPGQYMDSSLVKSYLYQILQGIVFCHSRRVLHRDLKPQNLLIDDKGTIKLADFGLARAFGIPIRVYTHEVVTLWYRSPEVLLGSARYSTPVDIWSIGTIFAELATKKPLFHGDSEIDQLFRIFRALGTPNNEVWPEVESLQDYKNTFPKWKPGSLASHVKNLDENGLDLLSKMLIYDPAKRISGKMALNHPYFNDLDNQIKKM
CDK1/cyclin B, sequence (P14635 whole entry partner): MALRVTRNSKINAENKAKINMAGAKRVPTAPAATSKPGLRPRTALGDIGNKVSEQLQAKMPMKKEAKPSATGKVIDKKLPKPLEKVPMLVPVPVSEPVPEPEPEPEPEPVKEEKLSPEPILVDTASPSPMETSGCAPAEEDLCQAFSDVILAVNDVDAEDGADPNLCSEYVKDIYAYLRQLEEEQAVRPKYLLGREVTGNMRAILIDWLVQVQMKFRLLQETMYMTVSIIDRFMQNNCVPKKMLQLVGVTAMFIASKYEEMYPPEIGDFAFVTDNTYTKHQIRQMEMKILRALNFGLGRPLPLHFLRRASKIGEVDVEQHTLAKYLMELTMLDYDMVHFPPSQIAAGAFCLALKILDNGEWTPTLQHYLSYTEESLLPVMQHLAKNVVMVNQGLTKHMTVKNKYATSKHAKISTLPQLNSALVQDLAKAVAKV
c-MET, sequence (P08581 25-1390): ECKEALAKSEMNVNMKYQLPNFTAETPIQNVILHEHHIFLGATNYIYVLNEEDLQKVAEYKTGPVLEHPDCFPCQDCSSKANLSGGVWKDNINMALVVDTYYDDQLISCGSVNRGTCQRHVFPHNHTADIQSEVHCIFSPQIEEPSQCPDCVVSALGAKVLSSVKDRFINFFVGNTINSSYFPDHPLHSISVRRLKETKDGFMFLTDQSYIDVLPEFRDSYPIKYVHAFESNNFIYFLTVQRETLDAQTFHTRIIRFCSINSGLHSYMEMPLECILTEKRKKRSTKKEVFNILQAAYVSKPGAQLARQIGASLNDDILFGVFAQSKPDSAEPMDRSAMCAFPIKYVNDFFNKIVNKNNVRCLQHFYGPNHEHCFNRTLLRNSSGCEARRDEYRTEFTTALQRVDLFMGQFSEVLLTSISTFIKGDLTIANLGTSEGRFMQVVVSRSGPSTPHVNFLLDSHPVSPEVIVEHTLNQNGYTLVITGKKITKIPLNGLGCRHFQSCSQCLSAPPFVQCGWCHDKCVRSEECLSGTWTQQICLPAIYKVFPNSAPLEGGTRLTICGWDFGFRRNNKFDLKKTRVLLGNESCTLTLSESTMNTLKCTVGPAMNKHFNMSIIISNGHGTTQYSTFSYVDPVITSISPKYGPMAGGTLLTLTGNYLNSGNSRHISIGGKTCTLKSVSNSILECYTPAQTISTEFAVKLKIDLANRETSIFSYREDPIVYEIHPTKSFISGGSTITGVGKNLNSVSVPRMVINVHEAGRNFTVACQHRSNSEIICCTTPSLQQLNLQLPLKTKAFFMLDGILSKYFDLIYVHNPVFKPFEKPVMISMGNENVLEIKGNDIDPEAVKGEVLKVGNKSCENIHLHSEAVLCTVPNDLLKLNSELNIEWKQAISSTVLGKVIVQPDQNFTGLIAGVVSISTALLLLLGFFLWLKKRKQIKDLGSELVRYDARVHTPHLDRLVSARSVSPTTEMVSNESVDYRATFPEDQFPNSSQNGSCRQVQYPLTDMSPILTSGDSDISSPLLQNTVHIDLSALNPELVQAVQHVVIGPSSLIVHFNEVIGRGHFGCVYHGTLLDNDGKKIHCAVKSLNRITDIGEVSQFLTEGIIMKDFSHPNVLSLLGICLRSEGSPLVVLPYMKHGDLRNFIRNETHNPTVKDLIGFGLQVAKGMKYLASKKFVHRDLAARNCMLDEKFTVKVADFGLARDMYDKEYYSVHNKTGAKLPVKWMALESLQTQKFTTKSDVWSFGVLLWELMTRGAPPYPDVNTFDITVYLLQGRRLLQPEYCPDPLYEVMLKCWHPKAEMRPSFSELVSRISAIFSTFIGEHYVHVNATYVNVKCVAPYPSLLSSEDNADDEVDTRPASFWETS
LYN, sequence (P07948 whole entry): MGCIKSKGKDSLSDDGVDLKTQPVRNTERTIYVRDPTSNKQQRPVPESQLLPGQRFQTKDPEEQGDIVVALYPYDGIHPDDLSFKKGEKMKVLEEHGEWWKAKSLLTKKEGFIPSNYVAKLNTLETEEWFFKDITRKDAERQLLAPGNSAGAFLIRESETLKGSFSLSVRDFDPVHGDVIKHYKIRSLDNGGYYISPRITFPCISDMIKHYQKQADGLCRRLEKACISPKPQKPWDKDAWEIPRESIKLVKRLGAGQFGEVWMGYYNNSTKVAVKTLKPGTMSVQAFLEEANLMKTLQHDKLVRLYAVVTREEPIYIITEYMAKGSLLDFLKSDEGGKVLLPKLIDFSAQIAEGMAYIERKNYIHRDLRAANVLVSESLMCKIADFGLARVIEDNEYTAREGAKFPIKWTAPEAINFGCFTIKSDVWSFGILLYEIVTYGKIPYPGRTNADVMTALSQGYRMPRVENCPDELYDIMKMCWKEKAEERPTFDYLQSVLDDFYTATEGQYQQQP
FLT3, sequence (P36888 27-993): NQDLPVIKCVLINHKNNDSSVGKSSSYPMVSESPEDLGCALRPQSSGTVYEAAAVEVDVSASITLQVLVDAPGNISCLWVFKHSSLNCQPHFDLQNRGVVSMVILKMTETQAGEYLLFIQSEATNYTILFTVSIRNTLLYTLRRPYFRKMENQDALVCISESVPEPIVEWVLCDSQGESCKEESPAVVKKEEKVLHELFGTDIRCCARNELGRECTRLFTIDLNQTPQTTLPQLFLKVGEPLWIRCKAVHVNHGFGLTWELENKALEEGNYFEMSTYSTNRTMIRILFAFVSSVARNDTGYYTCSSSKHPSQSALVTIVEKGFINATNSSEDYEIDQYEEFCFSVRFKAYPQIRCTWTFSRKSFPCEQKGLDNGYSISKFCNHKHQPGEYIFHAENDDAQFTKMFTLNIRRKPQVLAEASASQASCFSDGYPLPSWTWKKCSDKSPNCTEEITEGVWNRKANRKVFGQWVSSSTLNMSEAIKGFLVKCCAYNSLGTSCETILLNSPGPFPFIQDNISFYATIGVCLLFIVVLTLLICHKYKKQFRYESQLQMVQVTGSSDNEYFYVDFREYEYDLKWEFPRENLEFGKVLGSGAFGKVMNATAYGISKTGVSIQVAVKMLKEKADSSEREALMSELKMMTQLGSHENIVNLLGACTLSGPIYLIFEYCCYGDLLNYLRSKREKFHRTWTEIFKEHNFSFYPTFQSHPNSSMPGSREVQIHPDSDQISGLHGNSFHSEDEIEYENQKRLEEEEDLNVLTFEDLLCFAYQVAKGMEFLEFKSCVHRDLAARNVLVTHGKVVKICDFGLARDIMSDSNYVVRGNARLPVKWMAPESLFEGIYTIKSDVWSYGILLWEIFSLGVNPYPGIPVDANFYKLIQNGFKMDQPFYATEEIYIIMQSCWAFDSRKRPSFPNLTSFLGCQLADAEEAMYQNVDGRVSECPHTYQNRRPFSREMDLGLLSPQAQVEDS
Aurora A, sequence (O14965 whole entry): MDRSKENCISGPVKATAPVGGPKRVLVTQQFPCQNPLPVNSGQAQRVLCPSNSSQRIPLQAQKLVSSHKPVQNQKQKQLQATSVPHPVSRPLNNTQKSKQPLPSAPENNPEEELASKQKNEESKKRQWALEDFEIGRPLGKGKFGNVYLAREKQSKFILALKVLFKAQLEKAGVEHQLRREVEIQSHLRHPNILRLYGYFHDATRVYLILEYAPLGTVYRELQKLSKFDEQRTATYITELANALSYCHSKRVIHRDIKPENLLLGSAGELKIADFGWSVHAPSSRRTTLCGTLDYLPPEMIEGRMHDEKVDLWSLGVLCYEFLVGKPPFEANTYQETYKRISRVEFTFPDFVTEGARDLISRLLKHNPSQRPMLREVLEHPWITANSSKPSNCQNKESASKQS

## N#CCc1cnc(-c2ccc3ccccc3c2)n1-c1ccnc(NC2CCCN(C(=O)C3CC3)C2)n1 (centres unmarked) [Example 34, 2-(1-(2-(1-(cyclopropanecarbonyl)piperidine-3-ylamino)pyrimidine-4-yl)-2-(naphthalene-2-yl)-1H-imidazole-5-yl)acetonitrile]
Various protein kinases
  selectivity for JNK1/2/3 over other protein kinases (in words): selectively inhibiting an activity of JNK1/2/3
FMS; Data 1 and Data 2
  % Enzyme Activity (relative to DMSO controls): 93.11%
FMS; [1]
  remaining activity at 10 µM: 93.7%
JAK3; Data 1 and Data 2
  % Enzyme Activity (relative to DMSO controls): 99.82%
JAK3; [1]
  remaining activity at 10 µM: 101%
EGFR; Data 1 and Data 2
  % Enzyme Activity (relative to DMSO controls): 67.11%
EGFR; [1]
  remaining activity at 10 µM: 68.4%
PKA; Data 1 and Data 2
  % Enzyme Activity (relative to DMSO controls): 96.45%
PKA; [1]
  remaining activity at 10 µM: 97.3%
FLT3; Data 1 and Data 2
  % Enzyme Activity (relative to DMSO controls): 96.52%
FLT3; [1]
  remaining activity at 10 µM: 98.7%
c-MET; Data 1 and Data 2
  % Enzyme Activity (relative to DMSO controls): 90.72%
c-MET; [1]
  remaining activity at 10 µM: 105%
LRRK2; Data 1 and Data 2
  % Enzyme Activity (relative to DMSO controls): 95.95%
LRRK2; [1]
  remaining activity at 10 µM: 96.3%
Aurora A; Data 1 and Data 2
  % Enzyme Activity (relative to DMSO controls): 101.98%
Aurora A; [1]
  remaining activity at 10 µM: 102%
MEK1; Data 1 and Data 2
  % Enzyme Activity (relative to DMSO controls): 104.84%
MEK1; [1]
  remaining activity at 10 µM: 105%
SYK; Data 1 and Data 2
  % Enzyme Activity (relative to DMSO controls): 97.43%
SYK; [1]
  remaining activity at 10 µM: 98.1%
PLK1; Data 1 and Data 2
  % Enzyme Activity (relative to DMSO controls): 97.02%
PLK1; [1]
  remaining activity at 10 µM: 98.8%
ERK2/MAPK1; Data 1 and Data 2
  % Enzyme Activity (relative to DMSO controls): 97.70%
ERK2/MAPK1; [1]
  remaining activity at 10 µM: 98%
FAK/PTK2; Data 1 and Data 2
  % Enzyme Activity (relative to DMSO controls): 99.94%
FAK/PTK2; [1]
  remaining activity at 10 µM: 101%
c-Kit; Data 1 and Data 2
  % Enzyme Activity (relative to DMSO controls): 92.65%
c-Kit; [1]
  remaining activity at 10 µM: 93.4%
JNK2; Data 1 and Data 2
  % Enzyme Activity (relative to DMSO controls): 1.40%
JNK2; [1]
  remaining activity at 10 µM: 1.41%
AKT1; Data 1 and Data 2
  % Enzyme Activity (relative to DMSO controls): 99.04%
AKT1; [1]
  remaining activity at 10 µM: 103%
GSK3b; Data 1 and Data 2
  % Enzyme Activity (relative to DMSO controls): 29.80%
GSK3b; [1]
  remaining activity at 10 µM: 29.9%
CDK1/cyclin B; Data 1 and Data 2
  % Enzyme Activity (relative to DMSO controls): 90.33%
CDK1/cyclin B; [1]
  remaining activity at 10 µM: 90.7%
LYN; Data 1 and Data 2
  % Enzyme Activity (relative to DMSO controls): 85.66%
LYN; [1]
  remaining activity at 10 µM: 86.6%
FYN; Data 1 and Data 2
  % Enzyme Activity (relative to DMSO controls): 94.86%
FYN; [1]
  remaining activity at 10 µM: 95.6%
IGF1R; Data 1 and Data 2
  % Enzyme Activity (relative to DMSO controls): 92.45%
IGF1R; [1]
  remaining activity at 10 µM: 93.1%
LCK; Data 1 and Data 2
  % Enzyme Activity (relative to DMSO controls): 95.50%
LCK; [1]
  remaining activity at 10 µM: 95.8%
MLK1/MAP3K9; Data 1 and Data 2
  % Enzyme Activity (relative to DMSO controls): 93.90%
MLK1/MAP3K9; [1]
  remaining activity at 10 µM: 95.7%
ROS/ROS1; Data 1 and Data 2
  % Enzyme Activity (relative to DMSO controls): 95.23%
ROS/ROS1; [1]
  remaining activity at 10 µM: 97.8%
JNK3
  IC50: < 30 nM
